The values that follow come from US11459336B2, “Pyrazine carbamates and their use as GluN2B receptor modulators” (JANSSEN PHARMACEUTICA NV, priority 2019, dated 2022).

T1 sequence (Q13224 27-1484, other chains not shown): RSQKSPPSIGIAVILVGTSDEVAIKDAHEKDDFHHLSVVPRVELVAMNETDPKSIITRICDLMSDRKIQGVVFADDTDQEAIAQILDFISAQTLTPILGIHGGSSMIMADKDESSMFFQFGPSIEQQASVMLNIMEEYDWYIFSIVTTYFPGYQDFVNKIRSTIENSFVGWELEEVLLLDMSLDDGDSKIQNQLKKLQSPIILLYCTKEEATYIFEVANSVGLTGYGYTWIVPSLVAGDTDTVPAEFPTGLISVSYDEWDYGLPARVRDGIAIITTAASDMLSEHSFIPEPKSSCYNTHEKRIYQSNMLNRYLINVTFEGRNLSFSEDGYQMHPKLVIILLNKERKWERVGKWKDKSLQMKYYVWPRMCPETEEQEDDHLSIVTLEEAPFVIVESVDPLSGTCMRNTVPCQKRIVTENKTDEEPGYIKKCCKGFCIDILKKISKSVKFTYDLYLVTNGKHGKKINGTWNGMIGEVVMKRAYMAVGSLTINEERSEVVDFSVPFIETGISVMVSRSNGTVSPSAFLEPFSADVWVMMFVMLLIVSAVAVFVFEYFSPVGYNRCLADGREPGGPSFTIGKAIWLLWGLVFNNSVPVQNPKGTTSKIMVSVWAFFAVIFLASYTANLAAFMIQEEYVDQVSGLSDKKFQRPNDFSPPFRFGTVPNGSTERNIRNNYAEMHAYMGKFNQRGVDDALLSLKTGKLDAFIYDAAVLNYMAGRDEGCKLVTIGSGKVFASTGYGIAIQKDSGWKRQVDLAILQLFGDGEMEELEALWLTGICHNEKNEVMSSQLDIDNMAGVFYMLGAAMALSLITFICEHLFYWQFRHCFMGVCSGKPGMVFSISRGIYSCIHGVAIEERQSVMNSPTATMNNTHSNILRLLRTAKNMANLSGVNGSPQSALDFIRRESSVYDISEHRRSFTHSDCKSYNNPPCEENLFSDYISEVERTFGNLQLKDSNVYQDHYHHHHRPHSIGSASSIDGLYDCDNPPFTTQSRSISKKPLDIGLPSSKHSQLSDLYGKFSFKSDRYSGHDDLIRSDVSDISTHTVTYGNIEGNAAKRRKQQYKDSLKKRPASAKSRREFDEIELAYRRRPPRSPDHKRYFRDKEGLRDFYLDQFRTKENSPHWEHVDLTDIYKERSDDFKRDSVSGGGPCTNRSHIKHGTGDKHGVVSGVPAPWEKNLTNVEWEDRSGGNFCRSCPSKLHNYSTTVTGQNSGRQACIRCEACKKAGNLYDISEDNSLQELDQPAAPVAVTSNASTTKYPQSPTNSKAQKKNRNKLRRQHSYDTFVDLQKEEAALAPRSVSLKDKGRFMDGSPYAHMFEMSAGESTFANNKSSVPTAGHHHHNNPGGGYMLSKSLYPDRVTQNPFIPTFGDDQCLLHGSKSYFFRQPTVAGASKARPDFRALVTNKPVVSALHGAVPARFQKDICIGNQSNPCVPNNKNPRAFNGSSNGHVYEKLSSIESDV

The assay concerns the target T1, human GluN1/GluN2B NMDA receptors (Homo sapiens, UniProt Q13224).
T1 construct: expressed in transfected cells
The assay can be described thus: Calcium flux (FLIPR) assay on cloned human GluN1/GluN2B ion channels expressed in mammalian cells, standard assay. The assay is classed as cell-based. As to conditions: glutamate ~EC40, 10 μM glycine, stable cell line with Tet-On induced expression. The procedure: NMDA receptors are ion channels that are highly permeable to Ca^2+ ions, rendering it possible to monitor NMDA receptor function using cell-based calcium flux assay. In this assay, co-agonists glutamate and glycine are added to cells heterologously expressing human GluN1/GluN2B NMDA receptors to initiate cellular Ca^2+ influx. The time course of the changes in intracellular calcium is measured using a fluorescent dye and a FLIPR (Fluorometric Imaging Plate Reader) device.
Twenty four hours before measurements, the expression of the NMDA receptors in the stable cell line is induced with Tet-On inducible system in the presence of a non-selective NMDA receptor blocker. On the day of the experiment, cell culture media is carefully washed and the cells are loaded with Calcium 5 Dye Kit (Molecular Devices) in dye loading buffer containing 137 mM NaCl, 4 mM KCl, 2 mM CaCl2, 0.5 mM MgCl2 (standard assay) or 1.5 mM MgCl2 (HTS assay), 10 mM HEPES and 5 mM D-glucose; pH 7.4. After 1 h incubation at the room temperature, the dye is washed away with the assay buffer (137 mM NaCl (standard assay) or 150 mM (HTS assay), 4 mM KCl (standard assay) or 3 mM (HTS assay), 2 mM CaCl2, 0.01 mM EDTA, 10 mM HEPES and 5 mM D-glucose; pH 7.4) In the FLIPR TETRA reader, various concentrations of the test compounds are added to the cells for 5 min while fluorescence is monitored to detect potential agonist activity. Next, co-agonists, glutamate and glycine are added for another 5 minutes. The concentration of glutamate corresponding to ˜EC40 (standard assay) or EC40 (HTS assay) is used to maximize the assay's signal window and ability to detect NMDA receptor antagonists and negative allosteric modulators. A saturating concentration (10 μM) of glycine is also present in the assay. A non-selective NMDA receptor antagonist, (+)MK-801 is used as a positive control for antagonist activity. The fluorescent signal in the presence of test compounds is quantified and normalized to the signal defined by the appropriate control wells.
In general terms: Calcium flux is commonly read through the fluorescence of an indicator in the cells.
With `O=C1OCCN1Cc1cncc(-c2ccc(F)c(C(F)F)c2)n1` [Example 1, 3-[[6-[3-(Difluoromethyl)-4-fluoro-phenyl]pyrazin-2-yl]methyl]oxazolidin-2-one], the IC50 stood at 195 nM.

Consider `O=C1OCCN1Cc1cncc(-c2ccc(F)c(OC(F)F)c2)n1` [Example 2, 3-[[6-[3-(Difluoromethoxy)-4-fluoro-phenyl]pyrazin-2-yl]methyl]oxazolidin-2-one], for which the IC50 was 73 nM. The value for `CC1(C)CN(Cc2cncc(-c3ccc(F)c(C(F)F)c3)n2)C(=O)O1` [Example 4, 3-[[6-[3-(Difluoromethyl)-4-fluoro-phenyl]pyrazin-2-yl]methyl]-5,5-dimethyl-oxazolidin-2-one] was 1360 nM; that for `C[C@@H]1CN(Cc2cncc(-c3ccc(F)c(C(F)F)c3)n2)C(=O)O1` [Example 5, (5R)-3-[[6-[3-(Difluoromethyl)-4-fluoro-phenyl]pyrazin-2-yl]methyl]-5-methyl-oxazolidin-2-one] was 29 nM. As for `C[C@H]1CN(Cc2cncc(-c3ccc(F)c(C(F)F)c3)n2)C(=O)O1` [Example 6, (5S)-3-[[6-[3-(Difluoromethyl)-4-fluoro-phenyl]pyrazin-2-yl]methyl]-5-methyl-oxazolidin-2-one], the IC50 turned out to be 60 nM. Turning to `C[C@@H]1COC(=O)N1Cc1cncc(-c2ccc(F)c(C(F)F)c2)n1` [Example 7, (4R)-3-[[6-[3-(Difluoromethyl)-4-fluoro-phenyl]pyrazin-2-yl]methyl]-4-methyl-oxazolidin-2-one], the IC50 amounted to 288 nM. As for `O=C1OCCCN1Cc1cncc(-c2ccc(F)c(C(F)F)c2)n1` [Example 9, 3-[[6-[3-(Difluoromethyl)-4-fluoro-phenyl]pyrazin-2-yl]methyl]-1,3-oxazinan-2-one], the figure is 65 nM; as for `Cc1ncc(-c2ccc(F)c(C(F)F)c2)nc1CN1CC2(CC2)OC1=O` [Example 10, 5-[[6-[3-(Difluoromethyl)-4-fluoro-phenyl]-3-methyl-pyrazin-2-yl]methyl]-7-oxa-5-azaspiro[2.4]heptan-6-one], 37 nM; as for `Cc1ncc(-c2ccc(F)c(C(F)F)c2)nc1CN1C(=O)OC[C@@H]1C` [Example 12, (4S)-3-[[6-[3-(Difluoromethyl)-4-fluoro-phenyl]-3-methyl-pyrazin-2-yl]methyl]-4-methyl-oxazolidin-2-one], 605 nM. In the case of `Cc1ncc(-c2ccc(F)c(C(F)F)c2)nc1CN1C[C@@H](C)OC1=O` [Example 13, (5R)-3-[[6-[3-(Difluoromethyl)-4-fluoro-phenyl]-3-methyl-pyrazin-2-yl]methyl]-5-methyl-oxazolidin-2-one], the IC50 stood at 45 nM. As for `Cc1ncc(-c2ccc(F)c(C(F)F)c2)nc1CN1C[C@H](C)OC1=O` [Example 14, (5S)-3-[[6-[3-(Difluoromethyl)-4-fluoro-phenyl]-3-methyl-pyrazin-2-yl]methyl]-5-methyl-oxazolidin-2-one], the figure is 50 nM; as for `O=C1OC2(CC2)CN1Cc1cncc(-c2ccc(F)c(OC(F)F)c2)n1` [Example 16, 5-[[6-[3-(Difluoromethoxy)-4-fluoro-phenyl]pyrazin-2-yl]methyl]-7-oxa-5-azaspiro[2.4]heptan-6-one], 19 nM. Turning to `CC1(C)CN(Cc2cncc(-c3ccc(F)c(OC(F)F)c3)n2)C(=O)O1` [Example 17, 3-[[6-[3-(Difluoromethoxy)-4-fluoro-phenyl]pyrazin-2-yl]methyl]-5,5-dimethyl-oxazolidin-2-one], the half-maximal inhibitory concentration (IC50) was found to be 1140 nM. With `C[C@@H]1COC(=O)N1Cc1cncc(-c2ccc(F)c(OC(F)F)c2)n1` [Example 18, (4R)-3-[[6-[3-(Difluoromethoxy)-4-fluoro-phenyl]pyrazin-2-yl]methyl]-4-methyl-oxazolidin-2-one], the IC50 worked out at 44 nM. As for `C[C@H]1COC(=O)N1Cc1cncc(-c2ccc(F)c(OC(F)F)c2)n1` [Example 19, (4S)-3-[[6-[3-(Difluoromethoxy)-4-fluoro-phenyl]pyrazin-2-yl]methyl]-4-methyl-oxazolidin-2-one], the figure is 291 nM; as for `C[C@@H]1CN(Cc2cncc(-c3ccc(F)c(OC(F)F)c3)n2)C(=O)O1` [Example 20, (5R)-3-[[6-[3-(Difluoromethoxy)-4-fluoro-phenyl]pyrazin-2-yl]methyl]-5-methyl-oxazolidin-2-one], 29 nM; as for `C[C@H]1CN(Cc2cncc(-c3ccc(F)c(OC(F)F)c3)n2)C(=O)O1` [Example 21, (5S)-3-[[6-[3-(Difluoromethoxy)-4-fluoro-phenyl]pyrazin-2-yl]methyl]-5-methyl-oxazolidin-2-one], 20 nM.

With `O=C1OCCCN1Cc1cncc(-c2ccc(F)c(OC(F)F)c2)n1` [Example 22, 3-[[6-[3-(Difluoromethoxy)-4-fluoro-phenyl]pyrazin-2-yl]methyl]-1,3-oxazinan-2-one], the IC50 was 17 nM.

As for `Cc1ncc(-c2ccc(F)c(OC(F)F)c2)nc1CN1CC2(CC2)OC1=O` [Example 23, 5-[[6-[3-(Difluoromethoxy)-4-fluoro-phenyl]-3-methyl-pyrazin-2-yl]methyl]-7-oxa-5-azaspiro[2.4]heptan-6-one], the IC50 amounted to 66 nM. The value for `Cc1ncc(-c2ccc(F)c(OC(F)F)c2)nc1CN1C(=O)OC[C@H]1C` [Example 24, (4R)-3-[[6-[3-(Difluoromethoxy)-4-fluoro-phenyl]-3-methyl-pyrazin-2-yl]methyl]-4-methyl-oxazolidin-2-one] was 78 nM. The value for `Cc1ncc(-c2ccc(F)c(OC(F)F)c2)nc1CN1C(=O)OC[C@@H]1C` [Example 25, (4S)-3-[[6-[3-(Difluoromethoxy)-4-fluoro-phenyl]-3-methyl-pyrazin-2-yl]methyl]-4-methyl-oxazolidin-2-one] was 388 nM; that for `Cc1ncc(-c2ccc(F)c(OC(F)F)c2)nc1CN1C[C@@H](C)OC1=O` [Example 26, (5R)-3-[[6-[3-(Difluoromethoxy)-4-fluoro-phenyl]-3-methyl-pyrazin-2-yl]methyl]-5-methyl-oxazolidin-2-one] was 52 nM. As for `Cc1ncc(-c2ccc(F)c(OC(F)F)c2)nc1CN1C[C@H](C)OC1=O` [Example 27, (5S)-3-[[6-[3-(Difluoromethoxy)-4-fluoro-phenyl]-3-methyl-pyrazin-2-yl]methyl]-5-methyl-oxazolidin-2-one], the figure is 48 nM. For the compound `Cc1ncc(-c2ccc(F)c(OC(F)F)c2)nc1CN1CCCOC1=O` [Example 28, 3-[[6-[3-(Difluoromethoxy)-4-fluoro-phenyl]-3-methyl-pyrazin-2-yl]methyl]-1,3-oxazinan-2-one], the IC50 came out at 39 nM. For the compound `O=C1OC2(CC2)CN1Cc1cncc(-c2ccc(Cl)c(OC(F)F)c2)n1` [Example 29, 5-[[6-[4-Chloro-3-(difluoromethoxy)phenyl]pyrazin-2-yl]methyl]-7-oxa-5-azaspiro[2.4]heptan-6-one], the IC50 worked out at 19 nM.

In the case of `CC1(C)CN(Cc2cncc(-c3ccc(Cl)c(OC(F)F)c3)n2)C(=O)O1` [Example 30, 3-[[6-[4-Chloro-3-(difluoromethoxy)phenyl]pyrazin-2-yl]methyl]-5,5-dimethyl-oxazolidin-2-one], the IC50 is 669 nM.

Regarding `C[C@@H]1CN(Cc2cncc(-c3ccc(Cl)c(OC(F)F)c3)n2)C(=O)O1` [Example 31, (5R)-3-[[6-[4-Chloro-3-(difluoromethoxy)phenyl]pyrazin-2-yl]methyl]-5-methyl-oxazolidin-2-one], the IC50 is 20 nM.

As for `C[C@H]1CN(Cc2cncc(-c3ccc(Cl)c(OC(F)F)c3)n2)C(=O)O1` [Example 32, (5S)-3-[[6-[4-Chloro-3-(difluoromethoxy)phenyl]pyrazin-2-yl]methyl]-5-methyl-oxazolidin-2-one], the IC50 was 20 nM. As for `C[C@@H]1COC(=O)N1Cc1cncc(-c2ccc(Cl)c(OC(F)F)c2)n1` [Example 33, (4R)-3-[[6-[4-Chloro-3-(difluoromethoxy)phenyl]pyrazin-2-yl]methyl]-4-methyl-oxazolidin-2-one], the figure is 21 nM; as for `C[C@H]1COC(=O)N1Cc1cncc(-c2ccc(Cl)c(OC(F)F)c2)n1` [Example 34, (4S)-3-[[6-[4-Chloro-3-(difluoromethoxy)phenyl]pyrazin-2-yl]methyl]-4-methyl-oxazolidin-2-one], 86 nM; as for `O=C1OCCCN1Cc1cncc(-c2ccc(Cl)c(OC(F)F)c2)n1` [Example 35, 3-[[6-[4-Chloro-3-(difluoromethoxy)phenyl]pyrazin-2-yl]methyl]-1,3-oxazinan-2-one], 13 nM.

As for `Cc1ncc(-c2ccc(Cl)c(OC(F)F)c2)nc1CN1CC2(CC2)OC1=O` [Example 36, 5-[[6-[4-Chloro-3-(difluoromethoxy)phenyl]-3-methyl-pyrazin-2-yl]methyl]-7-oxa-5-azaspiro[2.4]heptan-6-one], the IC50 is 113 nM.

As a reminder, the IC50 is the midpoint of a concentration-inhibition curve.
